Test results: patent EP0428132A1, “Pradimicin derivatives” (Bristol-Myers Squibb Company, priority 1989, dated 1991)
Converted amounts (≈) assume the structure as drawn. “And” between values parts separate entries of the source, which are not always exact repeats. Identical values can stand only once.

Key:
[1] = tested on: FA21436; assay: In vitro antifungal activity, serial agar dilution method (Table 1); assay type: cell-based, Asoergukkys flavus; conditions: Sabouraud dextrose agar (pH 7.0); 28°C for 40 hours; read-out: MIC, Asoergukkys flavus FA21436
Procedure: (§1) The inoculum size was adjusted to 10⁶ cells/ml, and a volume of approximately 0.003 ml of fungal suspension was applied to the surface of the antibiotic containing agar plates with a multiinoculator. After incubation, the lowest concentration of antibiotic causing virtually complete inhibition of fungal growth was determined as the minimum inhibitory concentration (MIC). Table 1. [table]

[2] = tested on: Candida albicans IAM4888; assay: as above; assay type: cell-based; conditions: Candida albicans, IAM4888; Sabouraud dextrose agar (pH 7.0); 28°C for 40 hours
Procedure: as §1

[3] = tested on: Aspergillus fumigatus IAM2034; assay: as above; assay type: cell-based; conditions: Aspergillus fumigatus, IAM2034; Sabouraud dextrose agar (pH 7.0); 28°C for 40 hours
Procedure: as §1

[4] = tested on: Mucor spinosus IFO5317; assay: as above; assay type: cell-based; conditions: Sabouraud dextrose agar (pH 7.0), 28°C for 40 hours
Procedure: as §1

[5] = tested on: Fusarium moniliforme A2284; assay: as above; assay type: cell-based; conditions: Fusarium verticillioides, A2284; Sabouraud dextrose agar (pH 7.0); 28°C for 40 hours
Procedure: as §1

[6] = tested on: Cryptococcus neoformans D49; assay: as above; assay type: cell-based; conditions: Cryptococcus neoformans, D49; Sabouraud dextrose agar (pH 7.0); 28°C for 40 hours; read-out: MIC, Cryptococcus neoformans D49
Procedure: as §1

[7] = tested on: Blastomyces dermatidis D40; assay: as above; assay type: cell-based; conditions: Blastomyces, D40; Sabouraud dextrose agar (pH 7.0); 28°C for 40 hours; read-out: MIC, Blastomyces dermatidis D40
Procedure: as §1

[8] = tested on: Aspergillus fumigatus IAM2530; assay: as above; assay type: cell-based; conditions: Aspergillus fumigatus, IAM2530; Sabouraud dextrose agar (pH 7.0); 28°C for 40 hours
Procedure: as §1

[9] = tested on: Candida albicans A9540; assay: as above; assay type: cell-based; conditions: Candida albicans, A9540; Sabouraud dextrose agar (pH 7.0); 28°C for 40 hours
Procedure: as §1

[10] = tested on: Trichophyton mentagrophytes D155; assay: as above; assay type: cell-based; conditions: Trichophyton mentagrophytes, D155; Sabouraud dextrose agar (pH 7.0); 28°C for 40 hours
Procedure: as §1

[11] = tested on: Cryptococcus neoformans IAM4514; assay: as above; assay type: cell-based; conditions: Cryptococcus neoformans, IAM4514; Sabouraud dextrose agar (pH 7.0); 28°C for 40 hours
Procedure: as §1

[12] = tested on: Sprotricosis schenckii IFO8158; assay: as above; assay type: cell-based; conditions: Sabouraud dextrose agar (pH 7.0); 28°C for 40 hours; read-out: MIC, Sprotricosis schenckii IFO8158
Procedure: as §1

[13] = tested on: Petriellidium boydii IFO8078; assay: as above; assay type: cell-based; conditions: Scedosporium boydii, IFO8078; Sabouraud dextrose agar (pH 7.0); 28°C for 40 hours
Procedure: as §1

[14] = tested on: Trichophyton mentagrophytes #4329; assay: as above; assay type: cell-based; conditions: Trichophyton mentagrophytes; Sabouraud dextrose agar (pH 7.0); 28°C for 40 hours
Procedure: as §1

[15] = tested on: Candida tropicalis A25809; assay: In vitro antifungal activity, serial agar dilution method (Table 1a); assay type: cell-based; conditions: YM agar (pH 7.0, Difco), 30°C for 2 days (yeast) or 4 days (filamentous fungi), read-out: MICs, Candida tropicalis A25809
Procedure: as §1, with “(MIC).” for “(MIC). Table 1. [table]”

[16] = tested on: Microsporum gypseum WW1107; assay: as above; assay type: cell-based; conditions: Nannizzia gypsea, YM agar (pH 7.0, Difco), 30°C for 2 days (yeast) or 4 days (filamentous fungi), read-out: MICs, Microsporum gypseum WW1107
Procedure: as §1, with “(MIC).” for “(MIC). Table 1. [table]”

[17] = tested on: Candida paratropicalis A25825; assay: as above; assay type: cell-based; conditions: YM agar (pH 7.0, Difco); 30°C for 2 days (yeast) or 4 days (filamentous fungi); read-out: MICs, Candida paratropicalis A25825
Procedure: as §1, with “(MIC).” for “(MIC). Table 1. [table]”

[18] = tested on: Candida pseudotropicalis A25802; assay: as above; assay type: cell-based; conditions: Kluyveromyces marxianus, YM agar (pH 7.0, Difco), 30°C for 2 days (yeast) or 4 days (filamentous fungi), read-out: MICs, Candida pseudotropicalis A25802
Procedure: as §1, with “(MIC).” for “(MIC). Table 1. [table]”

[19] = tested on: Candida albicans A9540; assay: Intravenous Candida albicans infection mouse model, Table 2 part B; assay type: in vivo, mice; conditions: at 1 and 3.5 hrs after infection and twice on the following day, 21 days after fungal challenge, method of Spearman-Karber, male ICR mice
Procedure: Several compounds were also evaluated in an intravenous Candida albicans […] infection mouse model. The test organism was suspended in saline approximately 10 times the median lethal dose of the fungus (10⁶ cells/mouse) were used to infect intravenously male ICR mice weighing 20 to 24 g. Groups of five mice at each dose level were given the test compounds intravenously or intramuscularly. The 50% protective dose (PD₅₀) was calculated from survival rates recorded 20 or 21 days after the fungal challenge. […]

[20] = tested on: Candida albicans A9540; assay: Intravenous Candida albicans infection mouse model, Table 2 part A; assay type: in vivo; conditions: drug administered once just after infection, 20 days after fungal challenge, method of Litchfield and Wilcoxon, male ICR mice
Procedure: Several compounds were also evaluated in an intravenous Candida albicans […] infection mouse model. The test organism was suspended in saline approximately 10 times the median lethal dose of the fungus (10⁶ cells/mouse) were used to infect intravenously male ICR mice weighing 20 to 24 g. Groups of five mice at each dose level were given the test compounds intravenously or intramuscularly. The 50% protective dose (PD₅₀) was calculated from survival rates recorded 20 or 21 days after the fungal challenge. Control animals died between 7 to 15 days.

[21] = Water solubility, protocol I (PBS, HPLC); assay type: physicochemical; conditions: Method I: PBS without CaCl₂ and MgCl₂.6H₂O
Procedure: The supernatant (2 µL) was analyzed by HPLC using the conditions specified for each compound in the Experimental Section. […] When not soluble, an additional amount of PBS (x µL) was added, sonicated, and centrifuged. When visibly soluble, the solution (2 µL) was injected to HPLC and the peak area was used for the known concentration of the sample.

[22] = physchem
Procedure: The sample (3 ∼ 3.5 mg) was suspended in 1 ml of PBS(-) or PBS(+), sonicated at 30°C for 10 minutes, and allowed to stand at room temperature for 2 hours. The resulting solution or suspension was centrifuged at 12,000 rpm for 10 minutes. The supernatant (pH 6.7 ∼ 7.2) was diluted (5 x or 50 x) with 0.01N NaOH (pH ca. 11.5) and its UV absorption at 500 nm was measured. The solubility was assessed by the absorption coefficient value with reference to the standard. […] The zwitterionic form sample was used for the solubility test as it is. The hydrochloride salt sample (3 mg) was dissolved in 3 ml of distilled water and neutralized with 0.01N NaOH, and then the solution was lyophilized to give a test sample.
Dulbecco's phosphate buffered saline (PBS) solution was used. Preparation of PBS(-) solution: One PBS(-) tablet (Flow Laboratories, Cat. No. 28-103-05) was dissolved in 100 ml distilled water, and the solution was autoclaved for 10 minutes at 115°C. This solution contains 0.2 g/L of KCl, 0.2 g/L of KH₂PO₄, 8 g/L of NaCl, and 1.15 g/L of Na₂HPO₄. Preparation of PBS(+) solution: One PBS(-) tablet was dissolved in 80 ml distilled water; 10 mg of CaCl₂ was dissolved in 10 ml distilled water; 10 mg of MgCl₂, 6H₂O was dissolved in 10 ml distilled water. These solutions were separately autoclaved, as described above, and mixed when cooled.

## CN[C@@H]1[C@H](O[C@@H]2OC[C@@H](O)[C@H](O)[C@H]2O)[C@@H](O)[C@H](O[C@H]2c3cc(C)c(C(=O)N[C@H](C)C(=O)O)c(O)c3-c3c(cc4c(c3O)C(=O)c3cc(OC)cc(O)c3C4=O)[C@@H]2O)O[C@@H]1C [Pradimicin A, reference compound]
[1]
  MIC: 6.3 µg/mL (≈ 7.49 µM)
[2]
  MIC: 6.3 µg/mL (≈ 7.49 µM)
[3]
  MIC: 3.1 µg/mL (≈ 3.69 µM)
[4]; Mucor spinosus, IFO5317
  MIC: > 100 µg/mL
[4]; value in parentheses = Partial Inhibition
  Partial Inhibition, Mucor spinosus IFO5317: 12.5 µg/mL
[5]
  MIC: 3.1 µg/mL (≈ 3.69 µM)
[6]
  MIC: 0.8 µg/mL (≈ 0.951 µM)
[7]
  MIC: 3.1 µg/mL (≈ 3.69 µM)
[8]
  MIC: 3.1 µg/mL (≈ 3.69 µM)
[9]
  MIC: 50 µg/mL (≈ 59.5 µM)
[10]
  MIC: 6.3 µg/mL (≈ 7.49 µM)
[11]
  MIC: 0.8 µg/mL (≈ 0.951 µM)
[12]
  MIC: 1.6 µg/mL (≈ 1.9 µM)
[13]
  MIC: 12.5 µg/mL (≈ 14.9 µM)
[14]
  MIC: 3.1 µg/mL (≈ 3.69 µM)
[15]
  MIC: 1.6 µg/mL (≈ 1.9 µM)
[16]
  MIC: 12.5 µg/mL (≈ 14.9 µM)
[17]
  MIC: > 50 µg/mL
[18]
  MIC: 3.2 µg/mL (≈ 3.81 µM)
[19]; Part B: route IM
  PD₅₀: 8.2 mg/kg
[19]; Part B: route IV
  PD₅₀: 30 mg/kg
[20]
  PD₅₀: 11 mg/kg and 7.9 mg/kg
[21]
  solubility: 17 µg/mL (≈ 20.2 µM)
[22]; Method II (+): PBS(+)
  solubility at 2 h: 81 µg/mL (≈ 96.3 µM)
[22]; Method II (-): PBS(-)
  solubility at 2 h: 17 µg/mL (≈ 20.2 µM)
